Results: ChEMBL document CHEMBL4017452, “Novel boronic acid derivatives of bis(indolyl) methane as anti-MRSA agents” (2017)
In brackets after ≈: the same amount, converted by molar mass. Activity calls are given as the source filed them. The rule behind the calls is not given here.

System: Staphylococcus aureus
Experiment: Binding affinity to methicillin-resistant Staphylococcus aureus [(Ac)2-L-Lys-D-Ala-/-D-Ala] assessed as change in entropy by isothermal titration calorimetric method

Structure (SMILES)	deltaS
OB(O)c1cccc(C(c2c[nH]c3ccccc23)c2c[nH]c3ccccc23)c1	-59.5 cal/mol/deg

System: Staphylococcus aureus
Experiment: Antibacterial activity against methicillin-resistant Staphylococcus aureus clinical isolates after 18 hrs by CLSI method
Format: functional

Structure (SMILES)	MIC
O=[N+]([O-])c1ccc2[nH]cc(C(c3ccc(C(c4c[nH]c5ccc([N+](=O)[O-])cc45)c4c[nH]c5ccc([N+](=O)[O-])cc45)cc3)c3c[nH]c4ccc([N+](=O)[O-])cc34)c2c1	500 µg/mL (≈ 670 µM)
Brc1ccc2[nH]cc(C(c3ccccc3)c3c[nH]c4ccc(Br)cc34)c2c1	> 1000 µg/mL
Cc1ccc(C(c2c[nH]c3ccc([N+](=O)[O-])cc23)c2c[nH]c3ccc([N+](=O)[O-])cc23)cc1	> 1000 µg/mL
O=[N+]([O-])c1ccccc1C(c1c[nH]c2ccccc12)c1c[nH]c2ccccc12	500 µg/mL (≈ 1360 µM)
COc1ccc2[nH]cc(C(c3ccc(Br)cc3)c3c[nH]c4ccc(OC)cc34)c2c1	62.5 µg/mL (≈ 135 µM)
O=[N+]([O-])c1ccc(C(c2c[nH]c3ccc(Br)cc23)c2c[nH]c3ccc(Br)cc23)cc1	15.6 µg/mL (≈ 29.7 µM)
c1ccc2c(C(c3ccc(C(c4c[nH]c5ccccc45)c4c[nH]c5ccccc45)cc3)c3c[nH]c4ccccc34)c[nH]c2c1	1000 µg/mL (≈ 1760 µM)
O=[N+]([O-])c1ccc(C(c2c[nH]c3ccc([N+](=O)[O-])cc23)c2c[nH]c3ccc([N+](=O)[O-])cc23)cc1	31.2 µg/mL (≈ 68.3 µM)
COc1ccc(C(c2c[nH]c3ccc([N+](=O)[O-])cc23)c2c[nH]c3ccc([N+](=O)[O-])cc23)cc1	> 1000 µg/mL
CN(C)c1ccc(C(c2c[nH]c3ccccc23)c2c[nH]c3ccccc23)cc1	> 1000 µg/mL
O=[N+]([O-])c1ccc(C(c2c[nH]c3ccccc23)c2c[nH]c3ccccc23)cc1	500 µg/mL (≈ 1360 µM)
O=[N+]([O-])c1ccc2[nH]cc(C(c3ccc(Br)cc3)c3c[nH]c4ccc([N+](=O)[O-])cc34)c2c1	500 µg/mL (≈ 1020 µM)
Cc1ccc(C(c2c[nH]c3ccc(Br)cc23)c2c[nH]c3ccc(Br)cc23)cc1	62.5 µg/mL (≈ 126 µM)
O=Cc1ccc(C(c2c[nH]c3ccccc23)c2c[nH]c3ccccc23)cc1	500 µg/mL (≈ 1430 µM)
Brc1ccc(C(c2c[nH]c3ccc(Br)cc23)c2c[nH]c3ccc(Br)cc23)cc1	31.2 µg/mL (≈ 55.9 µM)
COc1ccc2[nH]cc(C(c3ccc(N(C)C)cc3)c3c[nH]c4ccc(OC)cc34)c2c1	> 1000 µg/mL

Structure (SMILES)	MIC
COc1ccc2[nH]cc(C(c3ccc(C(c4c[nH]c5ccc(OC)cc45)c4c[nH]c5ccc(OC)cc45)cc3)c3c[nH]c4ccc(OC)cc34)c2c1	500 µg/mL (≈ 728 µM)
Brc1ccc(C(c2c[nH]c3ccccc23)c2c[nH]c3ccccc23)cc1	500 µg/mL (≈ 1250 µM)
OB(O)c1cccc(C(c2c[nH]c3ccccc23)c2c[nH]c3ccccc23)c1	3.91 µg/mL (≈ 10.7 µM)
OB(O)c1ccccc1C(c1c[nH]c2ccccc12)c1c[nH]c2ccccc12	3.91 µg/mL (≈ 10.7 µM)
O=[N+]([O-])c1cccc(C(c2c[nH]c3ccccc23)c2c[nH]c3ccccc23)c1	15.6 µg/mL (≈ 42.5 µM)
Cc1ccc(C(c2c[nH]c3ccccc23)c2c[nH]c3ccccc23)cc1	> 1000 µg/mL
OB(O)c1ccc(C(c2c[nH]c3ccccc23)c2c[nH]c3ccccc23)cc1	7.81 µg/mL (≈ 21.3 µM)
COc1ccc2[nH]cc(C(c3ccccc3[N+](=O)[O-])c3c[nH]c4ccc(OC)cc34)c2c1	500 µg/mL (≈ 1170 µM)
COc1ccc2[nH]cc(C(c3ccc([N+](=O)[O-])cc3)c3c[nH]c4ccc(OC)cc34)c2c1	> 1000 µg/mL
COc1ccc2[nH]cc(C(c3ccc(/C=N/Nc4ccc([N+](=O)[O-])cc4[N+](=O)[O-])cc3)c3c[nH]c4ccc(OC)cc34)c2c1	250 µg/mL (≈ 423 µM)
COc1ccc2[nH]cc(C(c3ccccc3)c3c[nH]c4ccc(OC)cc34)c2c1	> 1000 µg/mL
COc1ccc(C(c2c[nH]c3ccc(OC)cc23)c2c[nH]c3ccc(OC)cc23)cc1	> 1000 µg/mL
O=[N+]([O-])c1ccc(N/N=C/c2ccc(C(c3c[nH]c4ccccc34)c3c[nH]c4ccccc34)cc2)c([N+](=O)[O-])c1	500 µg/mL (≈ 942 µM)
c1ccc(C(c2c[nH]c3ccccc23)c2c[nH]c3ccccc23)cc1	> 1000 µg/mL
COc1ccc2[nH]cc(C(c3ccc(C)cc3)c3c[nH]c4ccc(OC)cc34)c2c1	> 1000 µg/mL

System: Staphylococcus aureus
Experiment: Binding affinity to methicillin-resistant Staphylococcus aureus [(Ac)2-L-Lys-D-Ala-/-D-Ala] assessed as change in enthalpy by isothermal titration calorimetric method

Structure (SMILES)	deltaH
OB(O)c1cccc(C(c2c[nH]c3ccccc23)c2c[nH]c3ccccc23)c1	-0.0494 kcal/mol

System: Staphylococcus aureus
Experiment: Bactericidal activity against methicillin-resistant Staphylococcus aureus at 0.8 to 4 ug/ml
Format: functional

Structure (SMILES)	Activity
OB(O)c1cccc(C(c2c[nH]c3ccccc23)c2c[nH]c3ccccc23)c1	Active
OB(O)c1ccccc1C(c1c[nH]c2ccccc12)c1c[nH]c2ccccc12	Active

System: Staphylococcus aureus
Experiment: Binding affinity to methicillin-resistant Staphylococcus aureus [(Ac)2-L-Lys-D-Ala-/-D-Ala] by isothermal titration calorimetric method

Structure (SMILES)	K
OB(O)c1cccc(C(c2c[nH]c3ccccc23)c2c[nH]c3ccccc23)c1	242 M⁻¹

System: Staphylococcus aureus
Experiment: Bactericidal activity against methicillin-resistant Staphylococcus aureus at 1.6 to 8 ug/ml
Format: functional

Structure (SMILES)	Activity
OB(O)c1ccc(C(c2c[nH]c3ccccc23)c2c[nH]c3ccccc23)cc1	Active
